Source: ChEMBL document CHEMBL1201862, “PubChem BioAssay data set” (2004)
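Each compound was tested at five concentrations against cells in 96-well plates for 48 hours. GI50 marks 50% less growth.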 The source made the active and inactive calls. No stated cut-off is given here; in the data, active = GI50 up to about 1.1 µM and inactive = higher.

Assays:
Experiment in all cases: NCI tumour cell line growth inhibition, 48 h
[1] = test system: HOP-92
[2] = test system: LXFL 529
[3] = test system: SNB-19
[4] = test system: UACC-257
[5] = test system: CCRF-CEM
[6] = test system: OVCAR-3
[7] = test system: SR
[8] = test system: Malme-3M
[9] = test system: SF-295
[10] = test system: EKVX
[11] = test system: SK-OV-3
[12] = test system: LOX IMVI
[13] = test system: HCT-116
[14] = test system: NCI-H522
[15] = test system: SK-MEL-2
[16] = test system: M14

Measured: GI50

CC(/C=C/NNC1=NN=C(c2ccccc2)C(c2ccccc2)N1)Sc1ccccc1N (stereo not given)
inactive: [1] 8.39 µM | [2] 4.98 µM | [3] 12.5 µM | [4] 7.06 µM | [5] 2.46 µM | [6] 10.3 µM | [7] 2.99 µM | [8] 7.05 µM | [9] 10.5 µM | [10] 18.5 µM | [11] 17.1 µM | [12] 3.18 µM | [13] 6.14 µM | [14] 3.56 µM | [15] 7.29 µM | [16] 3.41 µM

NC1=NS(=O)(=O)N=C(N)C1=Cc1ccc([N+](=O)[O-])o1
inactive: [1] 13.8 µM | [2] 17.1 µM | [3] 32.8 µM | [4] 15.5 µM | [5] 9.33 µM | [6] 18.1 µM | [7] 3.73 µM | [8] 16 µM | [9] 25.4 µM | [10] 17.9 µM | [11] 35 µM | [12] 17.2 µM | [13] 15.4 µM | [14] 17.7 µM | [15] 16.1 µM | [16] 14 µM

CCSc1nnc(-c2ccccc2)nc1Cc1ccc(OC)cc1
inactive: [1] > 100 µM | [2] 50.8 µM | [3] > 100 µM | [4] 56.5 µM | [5] 69 µM | [6] 88.9 µM | [7] 42.8 µM | [8] > 100 µM | [9] 52.5 µM | [10] > 100 µM | [11] 67.3 µM | [12] 47.9 µM | [13] 38.5 µM | [14] 43.3 µM | [15] 87.1 µM | [16] > 100 µM

O=C1NC(=S)NC(=O)C1=Cc1ccc2ccccc2n1
inactive: [1] > 100 µM | [2] > 100 µM | [3] > 100 µM | [4] > 100 µM | [5] > 100 µM | [6] > 100 µM | [7] > 100 µM | [8] > 100 µM | [9] > 100 µM | [10] > 100 µM | [11] > 100 µM | [12] > 100 µM | [13] > 100 µM | [14] > 100 µM | [15] > 100 µM | [16] > 100 µM

CC(C)c1ccccc1NC(=O)CCC(=O)NN
inactive: [1] > 100 µM | [2] > 100 µM | [3] > 100 µM | [4] > 100 µM | [5] > 100 µM | [6] > 100 µM | [7] > 100 µM | [8] > 100 µM | [9] > 100 µM | [10] > 100 µM | [11] > 100 µM | [12] > 100 µM | [13] > 100 µM | [14] > 100 µM | [15] > 100 µM | [16] > 100 µM

COc1ccc(-c2cc(-c3cc(Cl)cc(Br)c3O)nc(O)n2)cc1
inactive: [1] 17.8 µM | [2] 14.6 µM | [3] 23.9 µM | [4] 17.7 µM | [5] 19.8 µM | [6] 17.5 µM | [7] 18 µM | [8] 19.4 µM | [9] 18 µM | [10] 5.87 µM | [11] 19.5 µM | [12] 17.3 µM | [13] 12.2 µM | [14] 13.4 µM | [16] 19.2 µM

CCN(CC)C(=O)CCn1ccc(=O)[nH]c1=O
inactive: [2] > 100 µM | [3] > 100 µM | [5] > 100 µM | [6] > 100 µM | [7] > 100 µM | [8] > 100 µM | [9] > 100 µM | [10] > 100 µM | [12] > 100 µM | [13] > 100 µM | [14] > 100 µM | [15] > 100 µM | [16] > 100 µM

O=C1CC2=CCCC2O1 (stereo not given)
inactive: [1] > 100 µM | [2] > 100 µM | [3] > 100 µM | [4] > 100 µM | [5] > 100 µM | [6] > 100 µM | [8] > 100 µM | [9] > 100 µM | [10] > 100 µM | [11] > 100 µM | [12] > 100 µM | [13] > 100 µM | [14] > 100 µM | [15] > 100 µM | [16] > 100 µM

CSc1sc(=S)sc1C(=O)N(C)c1ccccc1
inactive: [2] > 100 µM | [3] > 100 µM | [5] 56 µM | [6] 91.8 µM | [7] 83 µM | [8] > 100 µM | [9] > 100 µM | [10] > 100 µM | [12] > 100 µM | [13] > 100 µM | [14] 48.8 µM | [15] > 100 µM | [16] > 100 µM

CSC(=O)C[C@@]12O[C@@H]([C@@H](C)C3CCC4[C@@H]5C(O)CC6=CC(=O)C=C[C@]6(C)C5CC[C@@]43C)C[C@](C)(O1)C(C)(C)O2 (stereo not given in full)
inactive: [1] 9.86 µM | [2] 13.2 µM | [3] 17.5 µM | [4] 12.6 µM | [5] 3.86 µM | [6] 15.1 µM | [7] 9.95 µM | [8] 23.2 µM | [9] 14.5 µM | [11] 16.6 µM | [12] 12.1 µM | [13] 12.8 µM | [14] 14.1 µM | [15] 22.9 µM | [16] 16.3 µM

CC12CC/C(=N/NC(N)=O)C3C1CCCC32
inactive: [1] > 100 µM | [2] > 100 µM | [3] > 100 µM | [4] > 100 µM | [5] > 100 µM | [6] > 100 µM | [7] > 100 µM | [8] > 100 µM | [9] > 100 µM | [11] > 100 µM | [12] > 100 µM | [13] > 100 µM | [14] > 100 µM | [15] > 100 µM | [16] > 100 µM

O=C(NCO)NCOCn1c(=O)n(CO)c(=O)n(CO)c1=O
inactive: [2] 20 µM | [3] > 31.6 µM | [4] 49.9 µM | [5] 14.4 µM | [6] 84.1 µM | [7] 29.2 µM | [8] 31.5 µM | [9] > 91 µM | [10] > 100 µM | [11] 99.8 µM | [12] 19 µM | [13] 31.6 µM | [15] 17.9 µM | [16] 17.1 µM

N#[N+][c-]1c(-c2ccccc2)n[nH]c1=O
inactive: [1] > 100 µM | [2] > 100 µM | [4] > 100 µM | [5] > 100 µM | [6] > 100 µM | [7] > 100 µM | [8] > 100 µM | [9] > 100 µM | [10] > 100 µM | [11] > 100 µM | [12] > 100 µM | [13] > 100 µM | [14] > 100 µM | [15] > 100 µM | [16] > 100 µM
